For data set [1] the following is noted: cited from earlier work; for Kow: octanol-water coefficient; for log10(Kow): organic solvents used for extraction of HA-stabilized CNTs (FIG. 9).
For data set [2] the following is noted: water solubility of the HOC; cited from earlier work.
For data set [3] the following is noted: benzalkonium chloride concentration of 6.0 g/L; cited from earlier work.
Data set [4] can be described thus: Sorption kinetics of HOCs onto Mag-PCMAs from contaminated water. It counts as physicochemical. The conditions noted are these: 20 mg/L HA; initial diuron 34.3 μmol/L. As to the method:
Sorption kinetics of HOCs onto Mag-PCMAs from contaminated water. The HOC sorption kinetics onto Mag-PCMAs were determined by batch experiments. Aliquots (50 mg) of Mag-PCMAs were mixed in 10 ml glass tubes with 10.0 ml of an aqueous solution of each HOC. […] The caps of the tubes were lined with PTFE. The tubes were shaken at 60 rpm at 22±2° C. continuously. At the end of 5, 10, 20, 30, 45, 60, 90, 120, 180, 200, 360, 720, and 1440 minutes, one tube was taken out. A magnet was then used to separate the Mag-PCMAs from the aqueous phase. […] 1.0 ml of the supernatant was taken for HOC analysis on a high performance liquid chromatography (HPLC). The amount of HOC sorbed was calculated as the difference between the initial and final HOC mass in aqueous phase. To order to investigate the effect of the presence of HA on HOC sorption kinetics, diuron sorption kinetics were determined in the presence of 20 mg/L HA (organic carbon content), an environmental relevant HA concentration.^29 The initial diuron concentration was 34.3 μmol/L.

Structures are written as SMILES. Values after ≈ are worked out from the molar mass of the structure shown.

On to `CCNc1nc(Cl)nc(NC(C)C)n1` [Atrazine, 2-chloro-4-ethylamino-6-isopropylamino-1,3,5-triazine], for which the Kow in data set [1] is reported as 416.

Take `c1ccc(-c2ccccc2)cc1` [Biphenyl, biphenyl]: the Kow in data set [1] is 7079. In data set [2], the Solubility is 44 µg/mL (≈ 285 µM). In the case of `CN(C)C(=O)Nc1ccc(Cl)c(Cl)c1` [Diuron, 3-(3,4-dichlorofenyl)-1,1-dimethylurea], in data set [1], the Kow is given as 660. The Solubility in data set [2] is 180 µg/mL (≈ 772 µM). Further, in data set [3], the “solubility of diuron relative to that in absence of the surfactant” value is listed as “about 20 times”. Moreover, in data set [4], the “effect of presence of HA on sorption kinetics” value is given as “no significant effect”. Turning to `c1ccc2ccccc2c1` [Naphthalene, naphthalene], the Solubility in data set [2] is 225 µg/mL (≈ 1760 µM). Turning to `ClC=C(Cl)Cl` [TCE, trichloroethene], the “log10(Kow)” value in data set [1] is 2.33. Take `CCCCCC` [hexane]: in data set [1], the “log10(Kow)” value was 4.00. Take `CCCCCCCC` [octane]: the “log10(Kow)” value in data set [1] was 5.18.

For orientation: Solubility means the concentration that dissolves in the medium under given conditions.

Values taken from patent US20120037840A1, “USE OF MAGNETIC NANOPARTICLES TO REMOVE ENVIRONMENTAL CONTAMINANTS” (priority 2008, published 2012).
